These results are taken from patent US20220354835A1, “COMPOUNDS FOR DEGRADING TAU PROTEIN AGGREGATES AND USES THEREOF” (Aprinoia Therapeutics Limited, priority 2019, published 2022).

The target in the first assay is T1, heparin-induced aggregated tau (aTau), full-length 2N4R human Tau (Homo sapiens, UniProt P10636).
T1 construct: transformed with a full-length 2N4R tau expression plasmid; made in house; host or cells: E. coli BL21
T1 sequence (P10636 1-441 isoform P10636-8): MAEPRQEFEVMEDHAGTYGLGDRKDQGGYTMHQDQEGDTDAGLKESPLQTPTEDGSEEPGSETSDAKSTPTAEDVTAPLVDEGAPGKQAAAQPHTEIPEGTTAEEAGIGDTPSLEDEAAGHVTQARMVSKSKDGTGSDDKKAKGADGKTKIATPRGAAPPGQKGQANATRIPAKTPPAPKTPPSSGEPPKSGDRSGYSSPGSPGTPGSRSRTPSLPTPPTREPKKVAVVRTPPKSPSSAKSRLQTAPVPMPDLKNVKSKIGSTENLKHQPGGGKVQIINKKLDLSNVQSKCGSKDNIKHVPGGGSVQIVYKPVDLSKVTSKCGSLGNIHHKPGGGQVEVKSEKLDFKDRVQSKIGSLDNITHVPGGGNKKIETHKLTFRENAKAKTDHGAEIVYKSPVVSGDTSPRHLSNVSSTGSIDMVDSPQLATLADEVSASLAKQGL
Nature of the assay: PBB5 competition assay. The class given is binding. Particulars: 0.12 μM aTau, 0.1 μM PBB5, compound up to 10 μM; read-out: Competition Assay with PBB5: Bmax (%). As for the experimental part:
(A) Expression and purification of human Tau: 1 mM IPTG (Sangon Biotech, Cat. No A100487) was used to induce production of tau by bacteria (BL21, Invitrogen, Cat. No C600003) transformed with a full-length 2N4R tau expression plasmid. After 3 hours, cell pellet was resuspended in lysis buffer (100 mM PIPES, 1 mM EGTA, 1 mM MgSO4, pH 6.8) and lysed by sonication followed by centrifugation (15,000 rpm, 15 min, 4° C.). The supernatant was then placed in a boiling water bath for 20 min, followed by centrifugation (15,000 rpm, 15 min, 4° C.). Supernatant was loaded onto a Q-Sepharose® Fast Flow column (GE healthcare, Cat. No 17-0510-01), the flow-through fraction was loaded onto an SP-Sepharose® Fast Flow column (GE healthcare, Cat. No 17-0729-01), and tau protein was eluted with elution buffer (100 mM PIPES, 1 M NaCl, 1 mM EGTA, 1 mM MgSO4, 0.2 M NaCl, pH 6.8). Collected fractions of tau-containing eluates were pooled, concentrated and dialyzed against HEPES buffer (25 mM HEPES, 0.1 mM EDTA, 0.5 mM DTT, 100 mM NaCl, pH 7.2) and stored at −80° C. in small aliquots until use. Protein concentration was determined by UV absorption.
(B) Preparation of heparin-induced aggregated tau (aTau): 2 μM of tau prepared in 30 mM Tris-HCl, pH 7.5 buffer was incubated in tube with 15 μM heparin (Sigma, Cat. No H3149) at 37° C. for 24 hours.
(E) PBBS competition assay: 2 μM of aTau was diluted to 0.12 μM by […] (pH 6.8) and then incubated with 0.1 μM 2-(4-(2-(methylamino)pyridine-5-yl)-1,3-butadiene-1-yl)benzothiazole-6-ol (PBB5) and serially diluted compound (three-fold serial dilution, from 10 to 0.00017 μM) in a 96-well plate (Corning, Cat. No 3573) at 37° C. for 1 hour. Fluorescence intensity (excitation/emission=530/690 nm) of PBB5 was read by microplate spectrometer (EnSpire 2300, PerkinElmer). Percentage of competition was calculated using the following equation: (Max−well of compound alone)/(Max−Min)*100%, where Max=(Tau+PBB5) signals−(buffer+PBB5) signals; and Min=(buffer+PBB5) signals−(buffer+PBB5) signals.
The IC50 value of each compound was calculated with GraphPad Prism software using the “4 Parameter Logistic Model or Sigmoidal Dose-Response Model”:
Y=Bottom+(Top−Bottom)/(1+(IC50/×)^HillSlope)
On to `CN(C)c1ccc(-c2ccc(-c3cn4cc(OCCOCCN5C(=O)CCC(N6C(=O)c7ccc(O)cc7C6=O)C5=O)ccc4n3)cc2)c(F)n1` (stereo not drawn) [Compound 160570, 2-[1-[2-[2-[2-[4-[6-(dimethylamino)-2-fluoranyl-pyridin-3-yl]phenyl]imidazo[1,2-a]pyridin-6-yl]oxyethoxy]ethyl]-2,6-bis(oxidanylidene)piperidin-3-yl]-5-oxidanyl-isoindole-1,3-dione], for which the Emax worked out at 100%. On the same count and under the same terms, for `CN(C)c1ccc2nc(-c3ccc(-c4ccc(NCCOCCN5C(=O)CCC(N6C(=O)c7ccc(O)cc7C6=O)C5=O)nc4)cc3)sc2c1` (stereo not drawn) [Compound 160703, 2-[1-[2-[2-[[5-[4-[6-(dimethylamino)-1,3-benzothiazol-2-yl]phenyl]pyridin-2-yl]amino]ethoxy]ethyl]-2,6-bis(oxidanylidene)piperidin-3-yl]-5-oxidanyl-isoindole-1,3-dione] the value was 100%.

The target in another assay is T2, Tau aggregates in P301L-Tau-FL-GFP HEK293 cells (Homo sapiens, UniProt P10636, P618L).
T2 construct: express full-length human tau T40 (2N4R) carrying the P301L mutation with a GFP tag; expressed in transfected cells
T2 sequence (P10636 1-441 isoform P10636-8 P301L): as the sequence (P10636 1-441 isoform P10636-8) above, with P301L counted along it
Nature of the assay: Tau degradation assay (APNmAb005 ELISA-based Tau aggregation assay). Particulars: 1 μM compound, APNmAb005 ELISA. The format is cell-based. As for the experimental part:
(A). Cell-based model of Tau inclusion formation: Six month old rTg4510 mouse brain lysates were used as the source of tau seeds, prepared as described in Example 26 above. P301L-Tau-FL-GFP HEK293 cells represent HEK293 cells express full-length human tau T40 (2N4R) carrying the P301L mutation with a GFP tag (P301L-Tau-FL-GFP). 1×10^6 of P301L-Tau-FL-GFP HEK293 cells were cultured on a 6-well plate in culture medium containing DMEM/F-12 (Gibco) supplemented with 10% fetal bovine serum (FBS) (Gibco), 1% Penicillin-Streptomycin (Gibco) and 0.5 mg/ml geneticin (Thermo Fisher Scientific) for 24 hours to reach 70-90% confluency, indicating the cells were ready for transfection. 50 μg of 6-month-old rTg4510 mouse brain lysate was diluted in 400 μL of serum free medium and mixed with 16 μL of lipofectamine 3000 reagent (Thermo Fisher Scientific) diluted in 400 μl of serum free medium. A solution mixture of rTg4510 brain lysate and lipofectamine 3000 was incubated at room temperature for 25 min. The culture media were removed, and then a solution mixture of rTg4510 lysate and lipofectamine 3000 was added to the cells for transfection. The solution mixture was incubated at room temperature for five hours, followed by medium change to 10% fetal bovine serum (FBS). After two-day incubation, Tau aggregates (Tau spots) were induced and images were acquired by ImageXpress Micro Confocal high-content imaging system (Molecular Devices) as described in Example 52 above. Analysis was performed by two customized modules in MetaXpress software (Molecular Devices) for aggregated tau analysis. Output included cell numbers, numbers of tau spots, average intensity of tau spots, and average size of tau spots.
(B). Compound treatment: 100 μL of 3×10^4 cells comprising Tau aggregates, prepared as described above in step (A), were plated on a 96-well plate coated with poly-D-lysine (BD Biosciences) and cultured for 24 hours. Compounds to be tested were dissolved in culture medium containing 0.1% DMSO. Each of test compounds in the concentration of 1, 0.2 and 0.04 μM was added to the cells comprising Tau aggregates and incubated at 37° C. for 24 hours. After that, culture medium was removed, cells were washed with PBS solution and then lysed using 30 μL of lysis buffer (PBS containing 0.3% Triton X-100 and 400 mM NaCl) for one hour at 4° C., and then cell lysate was diluted by 170 μl of PBS containing 400 mM NaCl. Cell lysate was filtrated by a […] filtration plate (Pall) and applied for Tau aggregation assay.
(C). Control cell lysate: control cell lysate was collected from non-seeded cells.
(D). ELISA-based Tau aggregation assay: APNmAb005 ELISA kit for Tau aggregation assay was designed and developed to detect abnormal tau aggregates in buffered solution or cell lysate by using anti-Tau APNmab005 as capture and detection antibody. This antibody is a highly specific antibody bound to human tau aggregates accumulated in mammalian cells. APNmAb005 is recited in PCT Patent Application No. PCT/M2020/057415, filed Aug. 5, 2020, which is incorporated herein by reference.
0.15 μg of APNmAb005 in 100 mM sodium carbonate buffer (pH 9.6) was coated on a high-binding polystyrene 96-well microplate (Greiner Bio-One) at 4° C. overnight. The microplate was washed with PBS followed by treatment with Intercept (PBS) blocking buffer (LI-COR) at room temperature for 2 hours. After that, the microplate was washed with PBS, and then the cell lysate with compound treatment, prepared as described above in step (C), was added into each well of the microplate and incubated at room temperature for 2 hours. The microplate was washed with PBS and then incubated with HRP-conjugated secondary antibody APNmAb005 at room temperature for 3 hours. HRP-conjugated secondary antibody APNmAb005 was prepared using HRP conjugation kit (Abcam,ab102890). The microplate was then washed with PBS and incubated with 100 μL of horseradish peroxidase (HRP) substrate at room temperature. […]
With `CN(C)c1ccc(-c2ccc(-c3cn4cccc(OCCOCCOc5ccc6c(c5)CN(C5CCC(=O)NC5=O)C6=O)c4n3)cc2)cn1` (stereo not drawn) [Compound 162842], the “Optical Density (O.D.) 450 value decrease compared to vehicle (reduction of Tau aggregates)” value was found to be 20%.

The assay is the same for the next values; noted with them: 1 μM of compound, 24 hours, P301L-Tau-FL-GFP HEK293 cells seeded with rTg4510 brain lysate; read-out: Activity (reduction of tau aggregates).
As for `CN(C)c1ccc(-c2ccc(-c3nc4ccc(NCCOCCOCCOCCOc5ccc6c(c5)C(=O)N(C5CCC(=O)NC5=O)C6=O)cc4s3)cc2)cn1` (stereo not drawn) [Compound 160939, 2-[2,6-bis(oxo)piperidin-3-yl]-5-[2-[2-[2-[2-[[2-[4-[6-(dimethylamino)pyridin-3-yl]-phenyl]-1,3-benzothiazol-6-yl]amino]ethoxy]ethoxy]ethoxy]ethoxy]isoindole-1,3-dione], the inhibition at 1 µM was below 10%. Consider `COc1ccc2nc(-c3ccc(-c4ccc(NCCOCCOc5ccc6c(c5)C(=O)N(C5CCC(=O)NC5=O)C6=O)nc4F)cc3)cn2c1` (stereo not drawn) [Compound 161215, 2-[2,6-bis(oxo)piperidin-3-yl]-5-[2-[2-[[6-fluoro-5-[4-(6-methoxyimidazo[1,2-a]pyridin-2-yl)phenyl]pyridin-2-yl]amino]ethoxy]ethoxy]isoindole-1,3-dione], for which the inhibition at 1 µM fell in the range of 10 to 20%.

On to `COc1ccc2nc(-c3ccc(-c4ccc(NCCOCCOCCOCCOCCOCCOc5ccc6c(c5)C(=O)N(C5CCC(=O)NC5=O)C6=O)nc4F)cc3)cn2c1` (stereo not drawn) [Compound 161409], for which the inhibition at 1 µM is 10 to 20%.

Regarding `COc1ccc2nc(-c3ccc(-c4ccnc(NCCOCCOc5ccc6c(c5)CN(C5CCC(=O)NC5=O)C6=O)c4)cc3)cn2c1` (stereo not drawn) [Compound 162640, 3-[6-[2-[2-[[4-[4-(6-methoxyimidazo[1,2-a]pyridin-2-yl)phenyl]pyridin-2-yl]amino]ethoxy]ethoxy]-3-oxidanylidene-1H-isoindol-2-yl]piperidine-2,6-dione], the inhibition at 1 µM lay in the range of 10 to 20%. As for `CN(C)c1ccc(-c2ccc(-c3cn4cccc(OCCOCCOc5ccc6c(c5)CN(C5CCC(=O)NC5=O)C6=O)c4n3)cc2)cn1` (stereo not drawn) [Compound 162842], the inhibition at 1 µM was above 20%. Same read-out and setting: then `CN(C)c1ccc(-c2ccc(-c3nc4ccc(OCCOCCOc5ccc6c(c5)CN(C5CCC(=O)NC5=O)C6=O)cc4s3)c(C(F)(F)F)c2)cn1` (stereo not drawn) [Compound 162903], with 10 to 20%.

As to `CN(C)c1ccc(-c2ccc(-c3nc4ccc(OCCOCCOc5ccc6c(c5)CN(C5CCC(=O)NC5=O)C6=O)cc4s3)cc2)cn1` (stereo not drawn) [Compound 163123], the inhibition at 1 µM fell in the range of 10 to 20%. Still for that read-out and setting: then `CN(C)c1ccc(-c2ccc(-c3nc4ccc(OCCOCCOc5ccc6c(c5)CN(C5CCC(=O)NC5=O)C6=O)cc4o3)cc2)cn1` (stereo not drawn) [Compound 163365], with 10 to 20%; and `CN(C)c1ccc(-c2ccc(-c3cn4cc(OCCOCCN5C(=O)CCC(N6C(=O)c7ccc(O)cc7C6=O)C5=O)ccc4n3)cc2)c(F)n1` (stereo not drawn) [Compound 170350], with 10 to 20%; and `CN(C)c1ccc(-c2ccc(-c3nc4ccc(OCCOCCOCCOc5ccc6c(c5)CN(C5CCC(=O)NC5=O)C6=O)cc4s3)c(C(F)(F)F)c2)cn1` (stereo not drawn) [Compound 174251], with below 10%. In the case of `CN(C)c1ccc2nc(-c3ccc(-c4ccc(NCCOCCOc5ccc6c(c5)CN(C5CCC(=O)NC5=O)C6=O)nc4)cc3C(F)(F)F)sc2c1` (stereo not drawn) [Compound 177031], the inhibition at 1 µM is below 10%. Same read-out and setting: for `COc1ccc2nc(-c3ccc(-c4ccc(NCCOCCOc5cccc6c5C(=O)N(C5CCC(=O)NC5=O)C6=O)nc4)cc3)sc2c1` (stereo not drawn) [Compound 177038] the value was below 10%.
